Biological target: T1, GATOR2/Sestrin2 complexes (Homo sapiens, UniProt P58004)
T1 construct: endogenous in cells; host or cells: HEK293T cells stably expressing FLAG-WDR24 (lentiviral, pLJM60)
T1 sequence (P58004 1-480): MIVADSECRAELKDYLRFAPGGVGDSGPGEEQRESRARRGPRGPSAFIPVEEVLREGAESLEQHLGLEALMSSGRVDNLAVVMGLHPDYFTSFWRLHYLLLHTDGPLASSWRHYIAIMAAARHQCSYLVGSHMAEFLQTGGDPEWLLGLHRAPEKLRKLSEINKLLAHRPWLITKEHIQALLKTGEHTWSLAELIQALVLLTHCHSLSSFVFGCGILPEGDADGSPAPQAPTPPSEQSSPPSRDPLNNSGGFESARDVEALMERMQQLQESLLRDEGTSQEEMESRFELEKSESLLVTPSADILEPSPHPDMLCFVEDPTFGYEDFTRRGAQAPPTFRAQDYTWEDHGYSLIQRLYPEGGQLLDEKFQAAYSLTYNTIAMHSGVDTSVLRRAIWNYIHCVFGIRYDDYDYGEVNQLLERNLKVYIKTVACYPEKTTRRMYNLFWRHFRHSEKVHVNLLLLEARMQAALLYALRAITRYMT
Assay: In vitro PPI assay (Method 1; Western blot assay): Sestrin2 bound to GATOR2 after compound addition to immunoprecipitated FLAG-WDR24 complex
Assay type: binding
Settings: 25 μM, % activity relative to leucine (25 μM = 100%)
Description: This screening assay measured test compound activity in vitro on GATOR2/Sestrin2 complexes purified via immunoprecipitation of stably expressed FLAG-WDR24 from HEK293T cells. HEK293T cells (293 Ts) were engineered to stably express N-terminally tagged FLAG-WDR24 via transduction by lentivirus. Lentiviruses were produced by co-transfection of the lentiviral transfer vector pLJM60 with the […] into HEK-293T cells using the XTremeGene 9 transfection reagent (Roche Diagnostics). The media was changed 24 hours post-transfection to Dulbecco's Modified Eagle's media (DMEM) supplemented with 30% Inactivated Fetal Serum. The virus-containing supernatants were collected 48 and 72 hours after transfection and passed through a 0.45 μm filter to eliminate cells. Target cells in 6-well tissue culture plates were infected in media containing 8 μg/mL polybrene and spin infections were performed by centrifugation at 2,200 rpm for 1 hour. Twenty-four hours after infection, the virus was removed and the cells selected with the appropriate antibiotic. Cells were then grown in DMEM supplemented with 10% fetal bovine serum and antibiotics.
Seventy-two hours later, cells were placed in standard RPMI media formulated with no amino acids and supplemented with 5 mM Glucose (−AA RPMI, US Biological Life Sciences) for 1 hour then subsequently lysed in lysis buffer (40 mM HEPES, 1% Triton, 10 mM sodium β-glycerophosphate, 10 mM sodium pyrophosphate, 2.5 mM MgCl2 and protease inhibitors). To isolate the FLAG-WDR24/endogenous-Sestrin2 complex, crude lysate (equivalent to 2-4 mg of total protein) in a volume of 1 ml was subjected to immunoprecipitation with 30 μl of anti-flag resin (SIGMA) for 2 hours at 4° C., washed twice in cold lysis buffer plus 0.5M NaCl and resuspended in 1 ml of cold cytosolic buffer (40 mM HEPES pH 7.4, 140 mM KCl, 10 mM NaCl, 2.5 mM MgCl2, 0.1% TritonX-100). […] After the incubation period, samples were centrifuged to pellet the FLAG-WDR24/endogenous-Sestrin2 complex bound to the anti-flag resin, the supernatant was completely removed and resin was resuspended in SDS-PAGE sample buffer and boiled for 5 minutes. Samples were then processed by SDS-PAGE and western blots were performed with anti-FLAG (SIGMA) and anti-Sestrin2 (Cell Signaling Technology) antibodies as described in L. Chantranupong, et al., Cell Reports 9:1-8 (2014).
The resulting western blots were scanned and band intensities corresponding to Sestrin2 and FLAG-WDR24 were quantified using the LI-COR® imaging platform. To determine the amount of Sestrin2 bound to GATOR2 for each condition, the band intensity for Sestrin2 was normalized to the band intensity of FLAG-WDR24. […]
72 hours later, cells were placed in standard RPMI media formulated with no amino acids and supplemented with 5 mM Glucose (−AA RPMI, USBiological Life Sciences) for 1 hour then subsequently lysed in lysis buffer (40 mM HEPES, 1% Triton, 10 mM Sodium Beta-Glycerophosphate, 10 mM Sodium Pyrophosphate, 2.5 mM MgCl2 and protease inhibitors). The Flag-WDR24/endogenous-Sestrin2 complex was isolated as follows: crude lysate (equivalent to 2-4 mg of total protein) in a volume of 1 ml was subjected to immunoprecipitation (IP) with 30 μl of anti-flag resin (SIGMA) for 2 hours at 4° C., washed twice in cold lysis buffer plus 0.5M NaCl and resuspended in 1 ml of cold cytosolic buffer (40 mM HEPES pH 7.4, 140 mM KCl, 10 mM NaCl, 2.5 mM MgCl2, 0.1% TritonX-100). Compounds were then added to each sample at a given concentration of 25 μM and incubated with rotation at 4° C. for 30 minutes. After the incubation period, samples were centrifuged to pellet the Flag-WDR24/endogenous-Sestrin2 complex bound to the anti-flag resin, the supernatant was completely removed and resin was resuspended in sodium dodecyl sulfate-polyacrylamide gel electrophoresis (SDS-PAGE) sample buffer and boiled for 5 minutes. […]

SMILES	Activity of Leucine: % Activity
CC(C)C[C@H](NC(C)C)C(=O)O [Compound I-13, (S)-2-(isopropylamino)-4-methylpentanoic Acid]	C (a % activity relative to leucine of between -40 and 40%)
CC(C[C@H](N)C(=O)O)C(F)(F)F (stereo in doubt) [Compound I-145, (2S,4R)-2-amino-5,5,5-trifluoro-4-methylpentanoic Acid]	A (a % activity relative to leucine of ≥40%)
CC(C)C[C@H](NC(=O)C(C)C)C(=O)O [Compound I-16, (S)-2-isobutyramido-4-methylpentanoic Acid]	C (a % activity relative to leucine of between -40 and 40%)
CC(C)C[C@H](N)C(=O)Nc1ccccc1 [Compound I-20, (S)-2-amino-4-methyl-N-phenylpentanamide]	C (a % activity relative to leucine of between -40 and 40%)
N[C@@H](CC1CC1)C(=O)O [Compound I-35]	A (a % activity relative to leucine of ≥40%)
COC(=O)/C=C/C(=O)N[C@@H](CC(C)C)C(=O)O [Compound I-45, (S,E)-2-(4-methoxy-4-oxobut-2-enamido)-4-methylpentanoic Acid]	B (a % activity relative to leucine of ≤−40%)
CCCC[C@H](N)C(=O)O [Compound I-31]	A (a % activity relative to leucine of ≥40%)
CC(C)C[C@H](N)C(=O)NC(C)C [Compound I-166]	C (a % activity relative to leucine of between -40 and 40%)
CC(C)C[C@H](NC(=O)C1CCCCC1)C(=O)O [Compound I-22, (S)-2-(Cyclohexanecarboxamido)-4-methylpentanoic Acid]	C (a % activity relative to leucine of between -40 and 40%)
CC(C)C[C@H](NS(=O)(=O)Cc1ccccc1)C(=O)O [Compound I-18, (S)-4-methyl-2-(phenylmethylsulfonamido)pentanoic Acid]	C (a % activity relative to leucine of between -40 and 40%)
N[C@@H](CCC(F)(F)F)C(=O)O [Compound I-6, (S)-2-amino-5,5,5-trifluoropentanoic Acid]	C (a % activity relative to leucine of between -40 and 40%)
COCCC(N)C(=O)O (stereo not drawn) [Compound I-39]	C (a % activity relative to leucine of between -40 and 40%)
CC(C)C[C@H](Nc1ccccc1)C(=O)O [Compound I-26, (S)-4-methyl-2-(phenylamino)pentanoic Acid]	C (a % activity relative to leucine of between -40 and 40%)
CC(C)[C@H](O)[C@H](N)C(=O)O [Compound I-27]	A (a % activity relative to leucine of ≥40%)
CC(C)C[C@H](N)S(=O)(=O)O [Compound I-157]	B to C
N[C@@H](CC(F)(F)F)C(=O)O [Compound I-4, (S)-2-amino-4,4,4-trifluorobutanoic Acid]	C (a % activity relative to leucine of between -40 and 40%)
CC(C)C[C@H](NS(C)(=O)=O)C(=O)O [Compound I-19, (S)-4-methyl-2-(methylsulfonamido)pentanoic Acid]	C (a % activity relative to leucine of between -40 and 40%)
CC(C)CN[C@@H](CC(C)C)C(=O)O [Compound I-14, (S)-2-(isobutylamino)-4-methylpentanoic Acid]	B (a % activity relative to leucine of ≤−40%)

SMILES	Activity of Leucine: % Activity
CN[C@@H](CC(C)(C)C)C(N)=O [Compound I-49]	C (a % activity relative to leucine of between -40 and 40%)
CNC(=O)[C@@H](N)CC(C)C [Compound I-21, (S)-2-amino-N,4-dimethylpentanamide]	C (a % activity relative to leucine of between -40 and 40%)
CC(C)C[C@H](NCc1ccccc1)C(=O)O [Compound I-11, (S)-2-(benzylamino)-4-methylpentanoic Acid]	C (a % activity relative to leucine of between -40 and 40%)
CC(C)C[C@H](N)C(=O)NS(C)(=O)=O.Cl [Compound I-147, (S)-2-amino-4-methyl-N-(methylsulfonyl)pentanamide Hydrochloride]	A (a % activity relative to leucine of ≥40%)
CC(C)C[C@@H](N)B1OC(C)(C)C(C)(C)O1 [Compound I-10]	C (a % activity relative to leucine of between -40 and 40%)
CC(C)C[C@H](NS(=O)(=O)c1ccccc1)C(=O)O [Compound I-25, (S)-4-methyl-2-(phenylsulfonamido)pentanoic Acid]	C (a % activity relative to leucine of between -40 and 40%)
N[C@@H](CC(C(F)(F)F)C(F)(F)F)C(=O)O [Compound I-164, (S)-2-Amino-5,5,5-trifluoro-4-(trifluoromethyl)pentanoic Acid]	A (a % activity relative to leucine of ≥40%)
CC(C)C[C@H](NC(=O)c1ccccc1)C(=O)O [Compound I-15, (S)-2-benzamido-4-methylpentanoic Acid]	C (a % activity relative to leucine of between -40 and 40%)
CN[C@@H](CC(C)(C)C)C(=O)O [Compound I-50]	C (a % activity relative to leucine of between -40 and 40%)
CC(C)C[C@H](NS(=O)(=O)C1CCCCC1)C(=O)O [Compound I-17, (S)-2-(cyclohexanesulfonamido)-4-methylpentanoic Acid]	C (a % activity relative to leucine of between -40 and 40%)
CC(C)CC(N)S(=O)(=O)O (stereo not drawn) [Compound I-33]	C (a % activity relative to leucine of between -40 and 40%)
CC(C)C[C@H](N)CC(=O)O [Compound I-34]	C (a % activity relative to leucine of between -40 and 40%)
CC(C)C[C@H](N)C(=O)N1CCCC1 [Compound I-154]	C (a % activity relative to leucine of between -40 and 40%)
CC[C@@H](C)[C@H](N)C(=O)O [Compound I-29]	A (a % activity relative to leucine of ≥40%)
N[C@H](CC1CCCC1)C(=O)O [Compound I-40]	A (a % activity relative to leucine of ≥40%)
CC(C)C[C@H](NC(=O)Cc1ccccc1)C(=O)O [Compound I-12, (S)-4-methyl-2-(2-phenylacetamido)pentanoic Acid]	C (a % activity relative to leucine of between -40 and 40%)
CC(C)C[C@H](N)C(=O)NS(=O)(=O)c1ccccc1 [Compound I-148]	A (a % activity relative to leucine of ≥40%)
CC(C)[C@H](N)C(=O)O [Compound I-28]	C (a % activity relative to leucine of between -40 and 40%)
